Measured values: PMC5813016 (Nature Communications, 2018)
Values joined by “and” are separate entries in the source; they are usually repeats but may differ in a detail not shown here. Identical values can stand only once.

Tests used:
[1] = system: human D1R S107A mutant; test: cAMP assay, D1R mutant S107A; conditions: relative to wild-type D1R; each table line is one experiment (Experiment # 1-6)
[2] = system: human D1R S198A mutant; test: cAMP assay, D1R mutant S198A; conditions: relative to wild-type D1R; each table line is one experiment (Experiment # 1-6)
[3] = system: cynomolgus monkeys; test: Monkey spontaneous eye blink rate (EBR); assay type: in vivo, Macaca fasicularis; conditions: cynomolgus monkey; for EBR response on repeated daily dosing (3 days): n = 3, A-77636 s.c., PF-2334 oral 0.6 + 0.3 mg/kg
Procedure: Increase in spontaneous EBR has been previously shown with D1 agonists and partial agonists. To confirm the specificity of the response in our particular assay set up for D1 activation, we verified that the D1 receptor antagonist SCH-39166 fully blocks the increased eye blink response of non-catechol full D1 agonist that is a close structural analog of the compounds in this paper (data not shown). All procedures involving animals were conducted with approval of the Pfizer Institutional Animal Care and Use Committee (Groton, CT) and compliant with the regulations and standards of the Animal Welfare Act (9CFR2, 9CFR3). Three male Cynomolgus macaques (Macaca fasicularis) of Mauritian origin, 7–10 years old, SPF for CHV-1, SIV, STLV1 and SRV 1, 2, 5 were used. Animals were exposed to 12 h light/dark cycle (lights on 6:00 AM – 6:00 PM). […] EBRS were recorded from chaired animals for 2 min at 10 min intervals by a trained observer through direct visual observation who was blinded to experimental conditions. Animals were chaired at approximately 7:30 AM. After vehicle or compound administration, eye blinks were recorded during the following intervals: from 10 to 50 min (0–1 h), 130 to 170 min (2–3 h), 310 to 350 min (5–6 h). Animals were returned to their home cages between two consecutive sessions and after the final recording of the day. Blood samples (1 ml) were collected from the femoral vein at 1 and 5 h after the first dose to quantitate plasma compound levels. […] A77636 was dissolved in 0.9% sterile saline, formulated fresh prior to administration, and given once per day for 3 days. […] Vehicle control was administered on day 0.
EBR data were first converted to blinks per minute. EBR were averaged by binning into 3 periods: Period 1 (0–1 h after the first dose) EBR = mean of 10, 20, 30, 40, and 50 min recordings; Period 2 (2–3 h after the first dose) EBR = mean of 130, 140, 150, 160, and 170 min recordings; Period 3 (5–6 h after the first dose) EBR = mean of 310, 320, 330, 340, and 350 min recordings. For Fig. 5c EBR data were averaged by binning data from periods 1 through 3 as daily EBR. Data from each animal was then normalized to their respective Day 1 EBR and expressed as percent of Day 1 EBR for each drug. EBR data were analyzed with SAS® 9.4 (SAS Institute Inc. Cary, NC) using a mixed linear model (Mixed Procedure) for repeated measures. The model included treatment, day, time period, and their interactions as fixed effects, and animal and animal-by-day interaction as random effects. A first order autoregressive model was used for longitudinal covariance structure. Differences between least squares means across days, overall and for each time period, were tested and adjusted for multiple comparisons via Tukey method. […]

[4] = system: human D1R Y194F mutant; test: cAMP assay, D1R mutant Y194F; conditions: relative to wild-type D1R; each table line is one experiment (Experiment # 1-6)

| SMILES | fold shift of cAMP functional potency, S107A (EC50 mutant/ EC50 WT) [1] | EBR response on repeated daily dosing (3 days) [3] | further results |
| --- | --- | --- | --- |
| Cc1cc(Oc2nccc3occc23)ccc1-c1c(C)ncc2nccn12 [PF-6142] | 2.3 | – | fold shift of cAMP functional potency, S198A (EC50 mutant/ EC50 WT) [2]: 6.0 and 7.0 and 6.4 and 7.5 |
| Cc1n[nH]c(=O)c(C)c1-c1ccc(Oc2nccc3occc23)cc1F [PF-2334] | – | sustained after multiple days of dosing | – |
| NC[C@@H]1O[C@H](C23CC4CC(CC(C4)C2)C3)Cc2c1ccc(O)c2O [A-77636, reference compound] | – | progressively and significantly attenuated with each dosing day | increase of spontaneous EBR over baseline after single dose ([3]; A-77636 s.c. (0.1 mg/kg as printed elsewhere in the source), PF-2334 oral 0.6 mg/kg + 0.3 mg/kg 8 h later): 2–3 fold |
| Cc1cc(Oc2cccc(O)c2O)ccc1-c1c(C)ncnc1C [PF-1437] | 1.2 | – | – |
| Cc1cc(Oc2nccc3occc23)ccc1-c1c(C)ncnc1C [PF-8871] | – | – | fold shift of cAMP functional potency, Y194F (EC50 mutant/ EC50 WT) [4]: 1.3 |
